According to patent US20260235546A1, “Methods and Systems for Interrogating Electrochemical Sensors” (The Regents of the University of California, priority 2023, published 2026):
“And” between values parts separate entries of the source, which are not always exact repeats. Equal entries are not always repeated.

Key:
[1] = system: phenylalanine-detecting EAB sensor (methylene-blue-modified aptamer); assay: FFT-EIS binding curve of phenylalanine-detecting EAB sensor in whole, freshly-collected rat's blood at 37° C
Experimental: (§1) To functionalize the working electrode the disulfide bond was first reduced in the stock alkanethiol-and-methylene-blue modified aptamer by combining 14 μL of 10 mM tris (2-carboxyethyl) phosphine with 2 μL of 100 μM DNA for 1 h in the dark. The gold electrodes were electrochemically cleaned and roughened with Millipore water and followed by immersion for 1 h in 500 nM reduced DNA in PBS. The electrodes were then transferred to a 10 mM solution of 6-mercapto-1-hexanol in PBS and stored overnight before use.
All electrochemical measurements were performed using an Autolab PGStat128N. The potentiostat was configured in “high stability mode” with a current range of ±1 μA, which affects the filter characteristics. For FFT-EIS measurements, the multi-sin waveform was generated by a DG812 arbitrary waveform generator (Rigol Technologies) and fed into the potentiostat's external voltage input using a BNC connection. The voltage waveform consisted of a superposition of 18 sine waves at logarithmically spaced frequencies ranging from 1 Hz to 1 kHz. The amplitude and phase of each sinusoidal oscillation were optimized for maximum signal-to-noise as discussed in the supporting information of Example 7, and the summed waveform was scaled to have a peak-to-peak amplitude of 25 mV. The potentiostat's native software (NOVA) was used to set the DC bias—the formal potential of methylene blue, as measured by cyclic voltammetry—on top of the AC perturbation. Voltage and current were recorded at 70 kHz using an SDS1202X-E oscilloscope. […] Data recording and processing were controlled by a custom Python program. Further details on the chosen waveform and artefact correction are described in supporting information of Example 7 (FIG. 7, FIG. 9, FIG. 11).
Impedance spectra were fitted to the equivalent circuit model using MEISP 3.0 after each experiment was complete. […]
Reference is made to FIG. 12. […] The endogenous concentration of phenylalanine in the blood (52 μM) was determined e using a fluorescent assay kit. […]

[2] = FFT-EIS-interrogated EAB sensor in jugular vein, real-time phenylalanine concentration in fasted and non-fasted rats; format: in vivo, Sprague-Dawley rats
Experimental: (§2) All in vivo experiments were performed on male Sprague-Dawley rats (4-5 months old). The rats weighed between 350-500 g and were pair-housed in a standard light cycle room (12:12 regular light cycle with lights on at 8 AM). They were allowed ad libitum access to food and water and the Institutional Animal Care and Use Committee (IACUC) of the University of California at Santa Barbara approved the experimental protocol which adhered to the guidelines given by the NIH Guide for Care and Use of Laboratory Animals.
Prior to the measurement, the rats were anesthetized using 4% isofluorane in a Plexiglas anesthesia chamber. Anesthesia was then maintained via a nose cone for the entire duration of the experiment at a level of 2-3% isofluorane. The neck was shaved and dissected in order to surgically isolate the left and right jugular veins. After isolating the two jugular veins, each one was tied off using sterile 6-0 silk sutures. Prior to the measurement, the wires in the sensor were adjusted such that the counter and working electrode were exposed outside of the 20G catheter into the vein as previously described. A small incision was then made in each vein using spring-loaded microscissors that allowed us to insert the sensor-containing catheter into the right jugular vein and an infusion line into the left jugular vein. Both the sensor and drug infusion catheter were anchored in place using two sterile 6-0 silk sutures. 30 units of heparin were infused through the infusion line immediately after insertion of the sensor and prior to any recordings. To intravenously dose the rats at 30 mg/kg a precalculated volume of 0.05 M vancomycin solution was injected using a syringe pump.
Specifically, after calibrating a phenylalanine-detecting EAB sensor in vitro, FFT-EIS interrogation was used to measure the molecule's concentration in the jugular veins of anesthetized rats with 1.8 s resolution. Doing so, it was observed baseline phenylalanine concentrations of 41±10 μM (the latter reflects one standard deviation) in a fasted animal and 39±6 μM in a non-fasted animal, values in line with previous reports. Upon two intravenous infusions of additional phenylalanine, rapid rises to peak concentrations of 300-400 μM were observed, followed by rapid decays back to baseline in the fasted animal.
Reference is made to FIG. 6. Using FFT-EIS to interrogate phenylalanine-detecting EAB sensors this metabolite has been monitored in situ in the jugulars of live rats with 1.8 s resolution. Reference Is made to panel (A). A fasted animal was infused with two sequential doses of phenylalanine. In both cases, the concentration of free phenylalanine in the blood quickly decayed back to the pre-infusion baseline (41±10 μM, 31±9 μM, and 25±10 μM before injection, after the first injection, and after the final injection, respectively). Reference is made to Panel (B). In contrast, the return to the post-infusion baseline was slower in a non-fasted animal, which is consistent with previous reports regarding phenylalanine homeostasis. Here, the raw data (light points) are smoothed using a 13-s rolling average (darker trace). Concentration decay transients were fitted to a two compartment (i.e., biexponential) model (black traces).

[3] = FFT-EIS-interrogated lactate-detecting EAB sensor, real-time plasma lactate in a living rat; format: in vivo, Sprague-Dawley rats; details: about 1000 mg/kg sodium lactate intravenously
Experimental: FFT-EIS can be used to interrogate in vivo EAB sensors to monitor plasma lactate concentrations in a live rat in real time (FIGS. 13A and 13B). Lactate is an important clinical biomarker for sepsis and hypoxia during anesthesia, and lactate levels are useful to monitor sport performances. FFT-EIS is used to characterize the lactate-detecting EAB sensor in undiluted blood held at about 37° C. by stepwise changing the lactate level and measuring the corresponding ket value (FIG. 13A). […] Lactate concentrations can be determined in real time in a living rat by measuring changes in ket when employing the lactate detecting EAB sensor (FIG. 13B). Stable concentrations were measured prior to intravenously infusing about 1000 mg/kg sodium lactate.
The lactate aptamer is modified with a six-carbon thiol and the redox reporter methylene blue. The aptamer was reduced for 1 h in a solution containing about 11.26 μM aptamer and 8.87 mM TCEP and subsequently diluted till 500 nM in a PBS buffer plus 2 mM MgCl2. The intravenous sensors were fed through 20-gauge catheters and used the in vitro sensors as is. To form the lactate-detecting EAB sensor, the aptamer was deposited on the gold electrode by immersing the electrode for 1 h in a 500 nM reduced lactate aptamer solution followed by overnight immersion in 10 mM 6-mercaptohexanol to form a self-assembled monolayer. […]

[4] = biological target: vancomycin-detecting EAB sensor (methylene-blue-modified aptamer); assay: FFT-EIS binding curve (ket vs concentration) of vancomycin-detecting EAB sensor in whole bovine blood at 37° C; details: ± = estimated 95% confidence intervals, read-out: dissociation constant (KD), Hill-Langmuir isotherm fit of ket
Experimental: as §1
All electrochemical measurements were performed using an Autolab PGStat128N. The potentiostat was configured in “high stability mode” with a current range of ±1 μA, which affects the filter characteristics. […] The potentiostat's native software (NOVA) was used to set the DC bias—the formal potential of methylene blue, as measured by cyclic voltammetry—on top of the AC perturbation. Voltage and current were recorded at 70 kHz using an SDS1202X-E oscilloscope. […]
Reference is made to FIG. 3. In panel (A) the vancomycin-detecting EAB sensor was immersed in whole bovine blood at 37° C. and challenged with increasing quantities of the target molecule. […]
The impedimetric properties of EAB sensors, which are sensitive to target concentration, can be rapidly measured using FFT-EIS to enable highly-time resolved molecular measurements. […]

[5] = FFT-EIS-interrogated EAB sensor in jugular vein, real-time plasma vancomycin after intravenous infusion; format: in vivo, Sprague-Dawley rats; details: rat jugular vein
Experimental: as §2
Prior to the measurement, the rats were anesthetized using 4% isofluorane in a Plexiglas anesthesia chamber. […]
Aptamer-modified gold wire working electrodes were bundled with platinum counter and silver-silver chloride reference electrodes in a 20-gauge catheter (FIG. 4, panel A), and surgically inserted the resulting three-electrode sensor into the right jugular vein of an anesthetized rat. Full impedance spectra (containing 18 frequencies between 1 Hz and 1 kHz, FIG. 9) was then measured every 1.8 second for 2.5 hours. […]
FFT-EIS interrogation of EAB sensors provides a highly-time-resolved window into molecular physiology and pharmacokinetics (FIG. 5, panel A). […] Prior to drug infusion, vancomycin concentrations were measured fluctuating tightly around zero (1.1±1.7 μM). […]

[6] = fasted animal, first injection, ± = 95% confidence intervals
[7] = fasted animal, second injection, ± = 95% confidence intervals

N[C@@H](Cc1ccccc1)C(=O)O [phenylalanine]
ket,0 (ket in the absence of phenylalanine) ([1]; fitted): 62.9 s⁻¹ | ket,max (ket at saturating phenylalanine) ([1]; fitted): 225.8 s⁻¹ | Kd ([1]; read-out: dissociation constant KD, Langmuir isotherm fit of ket): 6.89 mM | baseline concentration after the final injection ([2]; fasted animal): 25 ± 10 µM | baseline concentration after the first injection ([2]; fasted animal): 31 ± 9 µM | time constant τ1, biexponential decay [2, 6]: 0.2 ± 0.1 min | time constant τ2, biexponential decay [2, 6]: 3.8 ± 0.2 min | time constant τ1, biexponential decay [2, 7]: 1.7 ± 0.1 min | time constant τ2, biexponential decay [2, 7]: 20 ± 2 min | peak concentration after intravenous infusion ([2]; fasted animal, two intravenous infusions): 300 to 400 µM | baseline concentration before injection ([2]; fasted animal, ± = one standard deviation): 41 ± 10 µM | baseline concentration ([2]; non-fasted animal): 39 ± 6 µM | time constant T2, biexponential decay ([2]; non-fasted animal): 35 ± 7 min | time constant τ1, biexponential decay ([2]; non-fasted animal): 3.3 ± 0.1 min

CC(O)C(=O)O (stereo not drawn) [lactate]
plasma lactate level course after infusion [3]: gradually returned to the prior baseline

CN[C@H](CC(C)C)C(=O)N[C@H]1C(=O)N[C@@H](CC(N)=O)C(=O)N[C@H]2C(=O)N[C@H]3C(=O)N[C@H](C(=O)N[C@H](C(=O)O)c4cc(O)cc(O)c4-c4cc3ccc4O)[C@H](O)c3ccc(c(Cl)c3)Oc3cc2cc(c3O[C@@H]2O[C@H](CO)[C@@H](O)[C@H](O)[C@H]2O[C@H]2C[C@](C)(N)[C@H](O)[C@H](C)O2)Oc2ccc(cc2Cl)[C@H]1O [vancomycin]
Kd [4]: 144 ± 31 µM | time constant of monoexponential concentration decay ([5]; after 30 mg/kg intravenous infusion, three separate animals, ± = 95% confidence intervals): 33.1 ± 0.5 min and 37.3 ± 0.7 min and 47.4 ± 1.3 min | measured concentration prior to drug infusion ([5]; pre-infusion): 1.1 ± 1.7 µM
